The record followed here is patent US20230372350A1, “ASTROCYTIC TRPA1 CHANNEL INHIBITION AS A NOVEL NEUROPROTECTIVE THERAPEUTIC TARGET IN THE PRODROMAL PHASES OF ALZHEIMER'S DISEASE” (priority 2020, published 2023).

The test system of one experiment is APP/PS1-21 and WT mice. As to the kind of experiment: Chronic intraperitoneal treatment: Barnes maze. The experiment is classed as in vivo, mouse. The following applies: 6-months old. As for the experimental part:
This solution is then diluted to 1 μg/μl in an isotonic solution containing 1% Pluronic F-127 and 0.9% NaCl. The animals are injected daily intraperitoneally at a dose of 5 mg/kg of body mass. Sterile 0.5 ml BD MicroFine syringes with no dead volume, equipped with a 30G (0.3 mm) needle are used for the injections. The injection is started from the 14th postnatal day (appearance of the expression of the Thy1gene promoter in the hippocampus, triggering the overexpression of Aβ in the APP/PS1-21 murine model) The mice were placed in the center of a well-lit open platform (BioSeb, diameter 120 cm). The platform includes 20 holes (diameter 5 cm) with an escape box (target) attached below any of the holes. On the first day of training, the mice were first placed in the middle of the platform and gently guided to the target after 5 minutes of free exploration. Once the mice entered the escape box, they remained there for 1 minute before being returned to their cage. During the 3 days of the training/acquisition phase, the mice performed 3 trials per day with an interval between trials of 20 minutes. The mice had 180 seconds to find the escape box or were gently guided thereto. On day 4 (test day), the escape box was removed and the mice were allowed to freely explore the maze for 60 seconds. The time taken to reach the target (latency) and the exploration time of the target area (target hole±1) were analyzed. All data were recorded and analyzed with EthoVision XT9 (Noldus). The working memory is perhaps one of the most studied aspects of memory impairment in Alzheimer's disease. The inventors administered daily the TRPA1 channel specific inhibitor (HC030031) or the carrier intraperitoneally (5 mg/kg of body mass) from the 14th postnatal day up to 6 months in APP/PS1-21 and wild-type WT mice.

Experiment [1] has as its system hippocampal astrocytes of APP/PS1-21 and WT mice. Nature of the experiment: Chronic intraperitoneal treatment: astrocyte calcium imaging (Fluo-4) in hippocampal slices. Type of experiment: in vivo, mouse. As for the experimental part: The used model is a transgenic murine model obtained on a C57BL/6J genetic background which co-expresses the mutated human form of the amyloid precursor protein (mutated APP KM670/671NL) and of presenilin 1 (mutated PS1 L166P) under the control of the neural promoter Thy1. The presence of these two mutations allows increased production of the Aβ peptide from the 14th postnatal day. This leads to cerebral amyloidosis with the appearance of the first senile plaques around 8 postnatal weeks. This amyloid pathology is accompanied by inflammatory gliosis (microgliosis and astrogliosis detectable from 4 months), dendritic spine dystrophy and tau hyperphosphorylation (around 8 months). Cognitive behavioral disorders, and in particular of learning and spatial memory, are developed in around 6 to 8 months. This model was set-up and described by Rebecca Radde in 2006 (Radde et al., EMBO reports, 2006) and is widely used by the scientific community. This model is available in the animal facility of the Institut des Neurosciences de Grenoble and has been bred by the inventors since 2014.
This solution is then diluted to 1 μg/μl in an isotonic solution containing 1% Pluronic F-127 and 0.9% NaCl. The animals are injected daily intraperitoneally at a dose of 5 mg/kg of body mass. Sterile 0.5 ml BD MicroFine syringes with no dead volume, equipped with a 30G (0.3 mm) needle are used for the injections.
The carrier (10% DMSO, 1% Pluronic F-127, 0.9% NaCl) is used as a control and is also injected daily, according to the same procedure, into the WT and APP/PS1 control animals (carrier groups).
The injection is started from the 14th postnatal day (appearance of the expression of the Thy1gene promoter in the hippocampus, triggering the overexpression of Aβ in the APP/PS1-21 murine model)
Coronal sections of the hippocampus (thickness 300 μm) were prepared from APP/PS1-21 transgenic mice (1 month and 3 months old) or from WT mice from the same litter. The mice were sacrificed by decerebration and decapitation. The brain was quickly removed and sectioned in ice-cold ACSF containing (in mM) : 2.5 KCl, 7 MgCl2, 0.5 CaCl2, 1.2 NaHPO4, 25 NaHCO3, 11D-glucose and 234 sucrose bubbled with 95% of O2 and 5% of CO2 with a VT1200S vibratome (Leica, Germany). The sections containing the hippocampus were placed in ACSF containing (in mM) : 126 NaCl, 2.5 KCl, 1.2 MgCl2, 2.5 CaCl2, 1.2 NaH2PO4 bubbled with 95% of O2 and 5% of CO2 and supplemented with 1 mM of sodium pyruvate at room temperature for a recovery period.
300 μm coronal sections were transferred to a chamber allowing constant perfusion with ACSF at room temperature, bubbling with 95% of O2 and 5% of CO2 on the upright microscope tray (Eclipse E600 FN, Nikon, France) equipped with a 60× (NA 1.0) water immersion objective and infrared interference contrast optical systems with a CCD camera (Optronis VX45, Germany). 8-11 MSΩ glass pipettes (Harvard Apparatus) were filled with an intracellular solution containing (in mM): 105 K-gluconate, 30 KCl, 10 phosphocreatine, 10 HEPES, 4 ATP-Mg, 0.3 GTP-Tris, 0.2 Fluo-4-pentapotassium salt (Life Technologies), adjusted to pH 7.2 with KOH. The signals were amplified by Axopatch 200B, sampled by a Digidata 1440A interface and recorded by the pClamp8 software (Molecular Devices, USA). Astrocytes were identified on the basis of their morphology, their location in the stratum radiatum and a negative resting potential (between −70 and −80 mV). The membrane potential was maintained at −80 mV. The input resistance was calculated by measuring the current in response to a 10 mV pulse of 80 ms duration near the end of the voltage command.

Setting [2] is: APP/PS1-21 mice, 5 mg/kg i.p. daily from 14th postnatal day.
Setting [3] is: WT control mice, chronic treatment.
Where [4] appears, read: APP/PS1-21 mice, 1-month old, 5 mg/kg i.p. daily from 14th postnatal day.
[5] abbreviates: APP/PS1-21 mice, 3 months, chronic treatment 5 mg/kg i.p.
[6] abbreviates: WT control mice, 1-month old, 5 mg/kg i.p. daily from 14th postnatal day.
Setting [7] is: WT mice, 3 months, chronic treatment 5 mg/kg i.p.

Consider `CC(C)c1ccc(NC(=O)Cn2cnc3c2c(=O)n(C)c(=O)n3C)cc1` [HC030031, 2-(1,3-Dimethyl-2,6-dioxo-1,2,3,6-tetrahydro-7H-purin-7-yl)-N-(4-isopropylphenyl)acetamide], for which, in the experiment with APP/PS1-21 and WT mice (setting [2]), the “area under the curve for latency to reach the escape box (learning phase, working memory)” value is given as 595.9±77.2 and the “first latency to the target area during the trial (reference memory)” value amounted to 18.5 ± 4.2 s. Further, in the experiment on APP/PS1-21 and WT mice (setting [3]), the reference memory performance entry is reported as “no impact” and the working memory performance result was “no impact”. Further, in experiment [1] (setting [4]), the calcium event frequency was 0.48±0.02 calcium event/minute and the “proportion of active microdomains” value worked out at 56.1±3.9%. For the same compound, in experiment [1] (setting [5]), the “frequency of calcium events within microdomains” value is recorded as 0.50±0.06 event/minute and the “proportion of active microdomains” value amounted to 49.4±6.4%. In experiment [1] (setting [6]), the “frequency of calcium events within the microdomains” value was found to be 0.51±0.02 calcium event/min and the “proportion of active microdomains” value is given as 53.0±2.7%. Further, in experiment [1] (setting [7]), the “frequency of calcium events within microdomains” value turned out to be 0.62±0.04 calcium event/minute and the “proportion of active microdomains” value stood at 60.2±3.8%.
